Patent US20250002471A1 (Gilead Sciences, Inc., priority 2020, published 2025)

Experiments:
TLR9 = target: T1, TLR9 (Homo sapiens, UniProt Q9NR96); experiment: Human PBMC cell-based assay, TLR9 agonist ODN-2216 stimulation, cytokine (IL-6 and IFNα) readout; details: human PBMCs, ODN-2216 3 μM, 6 hours; Table 26; read-out: TLR-9 EC50
T1 construct: lymphocytes, monocytes and dendritic cells that express TLR7, TLR8 and TLR9; endogenous in cells; host or cells: human PBMCs from healthy donors
T1 sequence (Q9NR96 26-1032): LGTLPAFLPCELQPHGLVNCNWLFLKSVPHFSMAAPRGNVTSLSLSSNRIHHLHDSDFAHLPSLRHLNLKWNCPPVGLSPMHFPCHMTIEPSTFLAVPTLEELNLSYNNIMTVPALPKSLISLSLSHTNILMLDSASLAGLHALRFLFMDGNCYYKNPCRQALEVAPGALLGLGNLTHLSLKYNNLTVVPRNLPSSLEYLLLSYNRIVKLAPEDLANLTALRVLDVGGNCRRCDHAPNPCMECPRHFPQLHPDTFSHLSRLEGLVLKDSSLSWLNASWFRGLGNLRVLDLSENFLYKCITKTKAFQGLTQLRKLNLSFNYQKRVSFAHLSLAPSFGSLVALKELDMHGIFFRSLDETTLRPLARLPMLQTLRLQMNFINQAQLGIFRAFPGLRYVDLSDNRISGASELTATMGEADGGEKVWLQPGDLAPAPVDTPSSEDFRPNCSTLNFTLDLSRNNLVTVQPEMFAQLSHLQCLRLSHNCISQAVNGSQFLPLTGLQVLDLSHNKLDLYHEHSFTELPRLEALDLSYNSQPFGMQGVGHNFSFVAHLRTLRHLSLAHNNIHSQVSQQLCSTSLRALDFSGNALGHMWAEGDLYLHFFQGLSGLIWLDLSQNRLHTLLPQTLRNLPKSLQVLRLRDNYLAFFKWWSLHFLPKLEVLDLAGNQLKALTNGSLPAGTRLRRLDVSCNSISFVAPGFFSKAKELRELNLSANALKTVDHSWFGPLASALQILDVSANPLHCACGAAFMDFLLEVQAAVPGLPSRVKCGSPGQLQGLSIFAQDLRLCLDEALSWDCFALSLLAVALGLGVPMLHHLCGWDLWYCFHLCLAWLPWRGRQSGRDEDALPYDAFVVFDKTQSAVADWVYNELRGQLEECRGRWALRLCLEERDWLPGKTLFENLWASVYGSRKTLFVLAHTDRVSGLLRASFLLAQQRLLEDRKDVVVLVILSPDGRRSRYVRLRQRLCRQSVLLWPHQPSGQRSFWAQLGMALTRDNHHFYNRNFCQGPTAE
Method in brief: (§1)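 Readout is IL-6 and IFNα in supernatants, quantified by electrochemiluminescence, with EC50 from a sigmoidal fit of cytokine versus concentration. Healthy-donor human PBMCs, 100,000 per well, got antagonist for 1 h at 37 °C, then 6 h agonist exposure: TLR7 via GS-986 at 400 nM final, TLR9 via ODN-2216 at 3 μM final.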

TLR7 = target: T2, TLR7 (Homo sapiens, UniProt Q9NYK1); experiment: Human PBMC cell-based assay, TLR7 agonist GS-986 stimulation, cytokine (IL-6 and IFNα) readout; details: human PBMCs, GS-986 400 nM, 6 hours; Table 26; read-out: TLR-7 EC50
T2 construct: lymphocytes, monocytes and dendritic cells that express TLR7, TLR8 and TLR9; endogenous in cells; host or cells: human PBMCs from healthy donors
T2 sequence (Q9NYK1 27-1049): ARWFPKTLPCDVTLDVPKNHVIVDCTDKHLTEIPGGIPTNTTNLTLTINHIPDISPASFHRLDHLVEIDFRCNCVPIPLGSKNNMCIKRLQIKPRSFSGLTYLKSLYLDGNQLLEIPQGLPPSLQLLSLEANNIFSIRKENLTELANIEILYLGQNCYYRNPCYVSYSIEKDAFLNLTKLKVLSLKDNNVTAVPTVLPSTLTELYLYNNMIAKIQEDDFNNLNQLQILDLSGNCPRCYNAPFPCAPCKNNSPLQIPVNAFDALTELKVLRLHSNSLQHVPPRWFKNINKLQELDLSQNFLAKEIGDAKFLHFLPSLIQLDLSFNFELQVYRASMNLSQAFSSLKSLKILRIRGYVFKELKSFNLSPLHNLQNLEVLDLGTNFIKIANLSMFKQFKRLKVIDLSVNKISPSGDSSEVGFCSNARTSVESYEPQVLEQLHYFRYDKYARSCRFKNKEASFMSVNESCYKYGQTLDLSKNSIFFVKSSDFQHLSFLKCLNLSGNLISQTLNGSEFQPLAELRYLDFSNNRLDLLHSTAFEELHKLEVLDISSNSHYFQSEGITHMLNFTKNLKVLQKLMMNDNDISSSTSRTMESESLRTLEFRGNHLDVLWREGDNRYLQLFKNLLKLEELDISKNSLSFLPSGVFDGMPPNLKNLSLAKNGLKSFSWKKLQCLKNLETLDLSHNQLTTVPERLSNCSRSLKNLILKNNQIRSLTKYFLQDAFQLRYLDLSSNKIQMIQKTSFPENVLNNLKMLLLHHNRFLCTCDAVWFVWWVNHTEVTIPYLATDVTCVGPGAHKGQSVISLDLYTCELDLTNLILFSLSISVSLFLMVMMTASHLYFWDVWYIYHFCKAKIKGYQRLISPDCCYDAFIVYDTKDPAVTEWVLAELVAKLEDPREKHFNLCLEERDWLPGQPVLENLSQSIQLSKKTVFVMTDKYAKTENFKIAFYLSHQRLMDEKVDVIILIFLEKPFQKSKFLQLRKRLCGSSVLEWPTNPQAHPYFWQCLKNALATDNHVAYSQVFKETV
Method in brief: as §1

Row | Compound | EC50 (TLR9) [nM] | EC50 (TLR7) [nM]
1 | Cc1cc(-c2[nH]c3cc(-c4ccc5ncn(C6CCNCC6)c5c4)ccc3c2C)cc(C)n1 [Example 166] | 522 | 144
2 | Cc1cc(-c2[nH]c3cc(-c4cnc5c(c4)CCNC5)ccc3c2C)cc(C)n1 [Example 181, 3-[2-(2,6-dimethyl-4-pyridyl)-3-methyl-1H-indol-6-yl]-5,6,7,8-tetrahydro-1,7-naphthyridine] | 35.2 | 48.3
3 | Cc1cc(-c2[nH]c3cc(-c4ccc(N5CCN(CC(=O)N(C)C)CC5)nc4)ccc3c2C)cc(C)n1 [Example 116] | 67.9 | 140
4 | Cc1cc(-c2[nH]c3cc(-c4cnn(CCN)c4)ccc3c2C)cc(C)n1 [Example 16] | 275 | 254
5 | Cc1cc(-c2[nH]c3cc(-c4cccc(C(=O)N5CC[C@H](N)C5)c4)ccc3c2C)cc(C)n1 [Example 119, (S)-(3-aminopyrrolidin-1-yl)(3-(2-(2,6-dimethylpyridin-4-yl)-3-methyl-1H-indol-6-yl)phenyl)methanone] | 193 | 54.1
6 | Cc1cncc(-c2[nH]c3cc(-c4ccc(N5CCNCC5)nc4)ccc3c2C)c1C [Example 86] | 1430 | 2670
7 | Cc1cc(-c2[nH]c3cc(-c4cnc(N5CCNCC5)nc4)ccc3c2C2CC2)cc(C)n1 [Example 67] | 199 | 3
8 | Cc1cc(-c2[nH]c3cc(-c4ccc(C(=O)N5CCC(N)CC5)nc4)ccc3c2C)cc(C)n1 [Example 145, (4-aminopiperidin-1-yl)(5-(2-(2,6-dimethylpyridin-4-yl)-3-methyl-1H-indol-6-yl)pyridin-2-yl)methanone] | 277 | 48.8
9 | Cc1cc(-c2[nH]c3cc(-c4ccc(N5C[C@H]6CC[C@@H](C5)[C@@H]6N)nc4)ccc3c2C)cc(C)n1 [Example 28] | 69.9 | 63
10 | Cc1cc(-c2[nH]c3cc(-c4nnc(C5CCNCC5)o4)ccc3c2C)cc(C)n1 [Example 190, 2-[2-(2,6-dimethyl-4-pyridyl)-3-methyl-1H-indol-6-yl]-5-(4-piperidyl)-1,3,4-oxadiazole] | 55 | 16
11 | Cc1cc(-c2[nH]c3cc(-c4ccc5c(c4)ncn5C4CCNCC4)ccc3c2C)cc(C)n1 [Example 148, 5-[2-(2,6-dimethyl-4-pyridyl)-3-methyl-1H-indol-6-yl]-1-(4-piperidyl)benzimidazole] | 142 | 11.8
12 | Cc1cc(-c2[nH]c3cc(-c4ccc5[nH]cnc5c4)ccc3c2C)cc(C)n1 [Example 44] | 242 | 121
13 | Cc1cc(-c2[nH]c3cc(-c4ccc(S(=O)(=O)N5CCNCC5)cc4)ccc3c2C)cc(C)n1 [Example 68] | 93.2 | 324
14 | Cc1cc(-c2[nH]c3cc(-c4ccc(N5CCN(C6COC6)CC5)nc4)ccc3c2C)cc(C)n1 [Example 38] | 382 | 273
15 | Cc1cc(-c2[nH]c3cc(-c4ccc(N5CCC(NCCO)CC5)nc4)ccc3c2C)cc(C)n1 [Example 131, 2-((1-(5-(2-(2,6-dimethylpyridin-4-yl)-3-methyl-1H-indol-6-yl)pyridin-2-yl)piperidin-4-yl)amino)ethan-1-ol] | 14.6 | 17.9
16 | Cc1cc(-c2[nH]c3cc(-c4ccc(N5CCN(C(=O)CN)CC5)nc4)ccc3c2C)cc(C)n1 [Example 137] | 119 | 45.9
17 | Cc1cc(-c2[nH]c3cc(-c4ccc5nc([C@@H]6CCCNC6)[nH]c5c4)ccc3c2C)cc(C)n1 [Example 160] | 566 | 30.7

Row | Compound | EC50 (TLR9) [nM] | EC50 (TLR7) [nM]
18 | Cc1cc(-c2[nH]c3nc(-c4ccc(N5CCNCC5)nc4)ccc3c2C)cc(C)n1 [Example 150] | 72.3 | 760
19 | Cc1cc(-c2[nH]c3cc(-c4ccc5nc([C@H]6CCCCN6)[nH]c5c4)ccc3c2C)cc(C)n1 [Example 164] | 49.1 | 22.8
20 | Cc1cc(-c2[nH]c3cc(C4CCNC4)ccc3c2C)cc(C)n1 (centres unmarked) [Example 54] | 69.4 | 1390
21 | Cc1cc(-c2[nH]c3cc(-c4ccc(C5=CCCNC5)nc4)ccc3c2C)cc(C)n1 [Example 162] | 30 | 9.1
22 | Cc1cc(-c2[nH]c3cc(-c4ccc(N5CCC[C@H](N)C5)nc4)ccc3c2C)cc(C)n1 [Example 26] | 40.2 | 31
23 | COc1cc(-c2[nH]c3cc(-c4ccc(N5CCNCC5)nc4)ccc3c2C)cc(C)n1 [Example 79] | 994 | 10.9
24 | Cc1cc(-c2[nH]c3cc(-c4ccc5c(c4)CC(N)C5)ccc3c2C)cc(C)n1 (centres unmarked) [Example 20] | 88.5 | 119
25 | CNCCN(C)c1ccc(-c2ccc3c(C)c(-c4cc(C)nc(C)c4)[nH]c3c2)cn1 [Example 30] | 55.8 | 24.1
26 | Cc1c(-c2ccc(=O)n(C)c2)[nH]c2cc(-c3ccc(N4CCNCC4)nc3)ccc12 [Example 95, 1-methyl-5-(3-methyl-6-(6-(piperazin-1-yl)pyridin-3-yl)-1H-indol-2-yl)pyridin-2(1H)-one] | 288 | 102
27 | Cc1cc(-c2[nH]c3cc(-c4ccc(N5CC6CNCC6C5)nc4)ccc3c2C)cc(C)n1 (centres unmarked) [Example 34] | 83.4 | 17.7
28 | Cc1nn(C)cc1-c1[nH]c2cc(-c3ccc(N4CCNCC4)nc3)ccc2c1C [Example 88] | 2190 | 317
29 | Cc1cc(-c2[nH]c3cc(-c4nc(N5CCNCC5)cs4)ccc3c2C)cc(C)n1 [Example 185, 2-(2-(2,6-dimethylpyridin-4-yl)-3-methyl-1H-indol-6-yl)-4-(piperazin-1-yl)thiazole] | 54.3 | 37.4
30 | Cc1cc(-c2[nH]c3cc(-c4cccc(C(=O)N5CCC(N)CC5)c4)ccc3c2C)cc(C)n1 [Example 122] | 87.2 | 226
31 | Cc1cc(-c2[nH]c3cc(-c4cnc5c(c4)ncn5C)ccc3c2C)cc(C)n1 [Example 46] | 1070 | 183
32 | Cc1cc(-c2[nH]c3cc(-c4ccc(N5CCC(N)CC5)nc4)ccc3c2C)cc(C)n1 [Example 21, 1-(5-(2-(2,6-dimethylpyridin-4-yl)-3-methyl-1H-indol-6-yl)pyridin-2-yl)piperidin-4-amine] | 28.3 | 8.6
33 | Cc1cc(-c2[nH]c3cc(-c4ccc(N5CCNCC5)nc4)ccc3c2C)c2ccccc2n1 [Example 90] | 753 | 29.8
34 | Cc1cc(-c2[nH]c3cc(-c4nc(C5CCNCC5)cs4)ccc3c2C)cc(C)n1 [Example 186, 2-(2-(2,6-dimethylpyridin-4-yl)-3-methyl-1H-indol-6-yl)-4-(piperidin-4-yl)thiazole] | 225 | 121
